Test [1] addresses T1, IVTris fibrils (recombinant Asyn PFF) (Homo sapiens, UniProt P37840).
T1 construct: made in house
Nature of the test: [3H]Tg-1-90B saturation binding assay with IVTris fibrils. The note with it: 250 nM fibrils. As to the method: (§1) IVTris fibrils were assembled in vitro by spontaneous nucleation in 20 mM Tris-HCl, pH 8.0, 100 mM NaCl buffer in a total volume of 1500 µL at 2 mg/mL monomer concentration. The incubation was carried out at 37 °C with continuous shaking at 1000 rpm in a Thermomixer (Eppendorf, Framingham, MA, USA) for 72 h. Amplified LBD fibrils were prepared as described in Dhavale et al. and case LBD1 amplified fibrils were used in this study. PD, disease-control and AD insoluble fraction (IF) tissue homogenate was prepared by sequential homogenization of dissected tissue gray matter in a series of detergents followed by centrifugation to obtain insoluble fraction. […]
(§2) A fixed concentration of binding substrates IVTris fibrils (250 nM), amplified LBD fibrils (50 nM), Aβ fibrils (150 nM), tau fibrils (150 nM), PD, AD or disease control homogenate (10 µg/mL) were incubated for 2 h at 37 °C with increasing concentrations of [^3H]Tg-1-90B in a reaction volume of 150 µL in a 96-well plate. […] Filters containing the bound ligand were mixed with 150 µL of Optiphase Supermix scintillation cocktail (PerkinElmer, Waltham, MA, USA) and counted following overnight incubation. […] The dissociation constant (Kd) and the maximal number of binding sites (Bmax) values were determined by fitting the data to the equation Y = Bmax × X/(X + Kd) by non-linear regression using Graphpad Prism software (version 7.0).

The target of test [2] is T2, amplified LBD fibrils (PDB 8FPT) alpha-synuclein (Homo sapiens, UniProt P37840).
T2 construct: made in house
Briefly: [3H]Tg-1-90B saturation binding assay with amplified LBD fibrils. Particulars: 50 nM fibrils. Here is the method: as §1, §2

One may read the Kd as the equilibrium constant for the complex coming apart. On to `COc1ccc(/C=C/c2cc(-c3nccs3)on2)cc1` [Tg-1-90B], for which the Kd in test [1] (2 h 37 °C, one site saturable specific binding) was determined as 40.1 ± 1.9 nM; in test [2] (2 h 37 °C), 17.5 nM. In addition, in test [1] (per nmol Asyn), the “average Bmax, IVTris fibrils” value stood at 22.3 ± 0.1 pmol/nmol. Further, in test [2] (per nmol Asyn), the “average Bmax, amplified LBD fibrils” value stood at 20.6 ± 2.5 pmol/nmol.

These data come from paper PMC12468313, “Use of Amplified Lewy Body Dementia Fibrils and Autoradiography to Characterize Binding of Radioligand Tg-1-90B to Alpha-Synuclein Fibrils in Postmortem Brain Tissue” (Cells, 2025).
